Experimental data taken from patent publication US12162893B2 (Erasca, Inc., priority 2020, dated 2024).

target: T1, mutant G12C K-RAS (Homo sapiens, UniProt P01116, G12C); assay: covalent adduct formation (CAF) with mutant G12C K-RAS; format: binding; parameters: CAF: unit not given here; conditions: Table 1, Pyrimidone Core-Morpholine Unsubstituted; after 60 minutes at 10 micromolar
T1 construct: made in house; host or cells: E. coli BL21
Description: Embodiments disclosed herein are further illustrated by the following examples in Tables 1-4 and the Examples hereinbelow. The Tables indicate the compound number, structure, the observed mass spectral molecular weight peak, and covalent adduct formation (CAF) with a mutant G12C K-RAS after 60 minutes at a concentration of 10 micromolar.

% CAF (60 min) | Structure (SMILES)
2% | C=CC(=O)N1C[C@H](C)N(c2nc(=O)n3c4c(c(-c5ccc(Cl)cc5F)ccc24)OCC3)C[C@H]1C [Example 17, 7-((2S,5R)-4-acryloyl-2,5-dimethylpiperazin-1-yl)-10-(4-chloro-2-fluorophenyl)-2H-[1,4]oxazino[2,3,4-ij]quinazolin-5(3H)-one]
79.6% | C=CC(=O)N1CCN(c2nc(=O)n3c4c(c(-c5c(C)ccc6[nH]ncc56)c(Cl)cc24)OCC3)CC1 [Example 7, (R)-7-(4-acryloylpiperazin-1-yl)-9-chloro-10-(5-methyl-1H-indazol-4-yl)-2H-[1,4]oxazino[2,3,4-ij]quinazolin-5(3H)-one]

same assay, conditions: Table 3, Pyridone Core-Morpholine Unsubstituted; after 60 minutes at 10 micromolar

CAF | Structure (SMILES)
0 | C=CC(=O)N1CCN(c2c(C#N)c(=O)n3c4c(c(-c5c(O)cccc5F)c(Cl)cc24)OCC3)[C@@H](C)C1 [Example 39, (S)-7-((S)-4-acryloyl-2-methylpiperazin-1-yl)-9-chloro-10-(2-fluoro-6-hydroxyphenyl)-5-oxo-3,5-dihydro-2H-[1,4]oxazino[2,3,4-ij]quinoline-6-carbonitrile]

same assay, conditions: Table 6; 10 μM, 1 h

Structure (SMILES) | % CAF @ 10 μM,1 h
C=CC(=O)N1C[C@H](C)N(c2nc(=O)n3c4c(c(-c5cccc6ccccc56)c(Cl)cc24)OC[C@H]3Cn2cccn2)C[C@H]1C (atropisomer, axis not shown) [Example 306, (3R,10R)-3-((1H-pyrazol-1-yl)methyl)-7-((2S,5R)-4-acryloyl-2,5-dimethylpiperazin-1-yl)-9-chloro-10-(naphthalen-1-yl)-2,3-dihydro-5H-[1,4]oxazino[2,3,4-ij]quinazolin-5-one] | 73.5%
C=CC(=O)N1C[C@H](C)N(c2nc(=O)n3c4c(c(-c5c(O)cccc5F)c(Cl)cc24)OC[C@@H]3CN2CCC(F)(F)C2)C[C@H]1C [Example 220, (3S,10R)-7-((2S,5R)-4-acryloyl-2,5-dimethylpiperazin-1-yl)-9-chloro-3-((3,3-difluoropyrrolidin-1-yl)methyl)-10-(2-fluoro-6-hydroxyphenyl)-2,3-dihydro-5H-[1,4]oxazino[2,3,4-ij]quinazolin-5-one] | 0%
C=CC(=O)N1C[C@H](C)N(c2nc(=O)n3c4c(c(-c5ccc(F)cc5F)c(Cl)cc24)OC[C@H]3CCCN2CC[C@H](OC)C2)C[C@H]1C [Example 334, (3R)-7-((2S,5R)-4-acryloyl-2,5-dimethylpiperazin-1-yl)-9-chloro-10-(2,4-difluorophenyl)-3-(3-((S)-3-methoxypyrrolidin-1-yl)propyl)-2,3-dihydro-5H-[1,4]oxazino[2,3,4-ij]quinazolin-5-one] | 84.6%
C=CC(=O)N1C[C@H](C)N(c2nc(=O)n3c4c(c(-c5ccc(F)cc5F)c(Cl)cc24)OC[C@H]3CCCN2CCN(C)CC2)C[C@H]1C [Example 264, (3R)-7-((2S,5R)-4-acryloyl-2,5-dimethylpiperazin-1-yl)-9-chloro-10-(2,4-difluorophenyl)-3-(3-(4-methylpiperazin-1-yl)propyl)-2,3-dihydro-5H-[1,4]oxazino[2,3,4-ij]quinazolin-5-one] | 97.4%
C=CC(=O)N1C[C@H](C)N(c2nc(=O)n3c4c(c(-c5cccc6ccccc56)c(Cl)cc24)OC[C@H]3CN2CCN(C)CC2)C[C@H]1C (atropisomer, axis not shown) [Example 295, (3R,10R)-7-((2S,5R)-4-acryloyl-2,5-dimethylpiperazin-1-yl)-9-chloro-3-((4-methylpiperazin-1-yl)methyl)-10-(naphthalen-1-yl)-2H-[1,4]oxazino[2,3,4-ij]quinazolin-5(3H)-one] | 58.4%
C=CC(=O)N1C[C@H](C)N(c2nc(=O)n3c4c(c(-c5ccc(F)cc5F)c(C5CC5)cc24)OC[C@H]3CCCN2C[C@@H]3C[C@H]2CO3)C[C@H]1C [Example 323, (3R)-3-(3-((1S,4S)-2-oxa-5-azabicyclo[2.2.1]heptan-5-yl)propyl)-7-((2S,5R)-4-acryloyl-2,5-dimethylpiperazin-1-yl)-9-cyclopropyl-10-(2,4-difluorophenyl)-2,3-dihydro-5H-[1,4]oxazino[2,3,4-ij]quinazolin-5-one] | 81.1%
C=CC(=O)N1C[C@H](C)N(c2nc(=O)n3c4c(c(-c5ccc(F)cc5F)c(Cl)cc24)OC[C@H]3CCCN(CC(F)(F)F)C2COC2)C[C@H]1C [Example 331, (3R)-7-((2S,5R)-4-acryloyl-2,5-dimethylpiperazin-1-yl)-9-chloro-10-(2,4-difluorophenyl)-3-(3-(oxetan-3-yl(2,2,2-trifluoroethyl)amino)propyl)-2,3-dihydro-5H-[1,4]oxazino[2,3,4-ij]quinazolin-5-one] | 59.2%
C=CC(=O)N1C[C@H](C)N(c2nc(=O)n3c4c(c(-c5c(O)cccc5F)c(Cl)cc24)OC[C@@H]3CN(C)CC(F)(F)F)C[C@H]1C (atropisomer, axis not shown) [Example 239, (3S,10R)-7-((2S,5R)-4-acryloyl-2,5-dimethylpiperazin-1-yl)-9-chloro-10-(2-fluoro-6-hydroxyphenyl)-3-((methyl(2,2,2-trifluoroethyl)amino)methyl)-2H-[1,4]oxazino[2,3,4-ij]quinazolin-5(3H)-one] | 3%
C=CC(=O)N1C[C@H](C)N(c2nc(=O)n3c4c(c(-c5ccc(F)cc5F)c(Cl)cc24)OC[C@H]3CCCN2C3CCC2CN(C)C3)C[C@H]1C [Example 311, (3R)-7-((2S,5R)-4-acryloyl-2,5-dimethylpiperazin-1-yl)-9-chloro-10-(2,4-difluorophenyl)-3-(3-(3-methyl-3,8-diazabicyclo[3.2.1]octan-8-yl)propyl)-2,3-dihydro-5H-[1,4]oxazino[2,3,4-ij]quinazolin-5-one] | 64.1%

Results, then the compound that gave them:

% CAF @ 10 μM,1 h | Structure (SMILES)
66.1% | C=CC(=O)N1C[C@H](C)N(c2nc(=O)n3c4c(c(-c5ccc(F)cc5F)c(Cl)cc24)OC[C@@H]3COC2CCN(C)C2)C[C@H]1C (stereo in doubt) [Example 313, (3S)-7-((2S,5R)-4-acryloyl-2,5-dimethylpiperazin-1-yl)-9-chloro-10-(2,4-difluorophenyl)-3-((((S)-1-methylpyrrolidin-3-yl)oxy)methyl)-2,3-dihydro-5H-[1,4]oxazino[2,3,4-ij]quinazolin-5-one]
91.2% | C=CC(=O)N1C[C@H](C)N(c2nc(=O)n3c4c(c(-c5ccc(F)cc5F)c(Cl)cc24)OC[C@@H]3CCCN2CCOCC2)C[C@H]1C [Example 215, (3S)-7-((2S,5R)-4-acryloyl-2,5-dimethylpiperazin-1-yl)-9-chloro-10-(2,4-difluorophenyl)-3-(3-morpholinopropyl)-2,3-dihydro-5H-[1,4]oxazino[2,3,4-ij]quinazolin-5-one]
63.4% | C=CC(=O)N1C[C@H](C)N(c2nc(=O)n3c4c(c(-c5ccc(F)cc5F)c(Cl)cc24)OC[C@@H]3CC2CCN(C)CC2)C[C@H]1C [Example 324, (3S)-7-((2S,5R)-4-acryloyl-2,5-dimethylpiperazin-1-yl)-9-chloro-10-(2,4-difluorophenyl)-3-((1-methylpiperidin-4-yl)methyl)-2H-[1,4]oxazino[2,3,4-ij]quinazolin-5(3H)-one]
0% | C=CC(=O)N1C[C@H](C)N(c2nc(=O)n3c4c(c(-c5c(C)ccc6[nH]nnc56)ccc24)OCC3)C[C@H]1C [Example 219, 7-((2S,5R)-4-acryloyl-2,5-dimethylpiperazin-1-yl)-10-(5-methyl-1H-benzo[d][1,2,3]triazol-4-yl)-2,3-dihydro-5H-[1,4]oxazino[2,3,4-ij]quinazolin-5-one]
76% | C=CC(=O)N1C[C@H](C)N(c2nc(=O)n3c4c(c(-c5ccc(F)cc5F)c(Cl)cc24)OC[C@H]3CN2CCC2)C[C@H]1C [Example 233, (3R)-7-((2S,5R)-4-acryloyl-2,5-dimethylpiperazin-1-yl)-3-(azetidin-1-ylmethyl)-9-chloro-10-(2,4-difluorophenyl)-2H-[1,4]oxazino[2,3,4-ij]quinazolin-5(3H)-one]
90.6% | C=CC(=O)N1C[C@H](C)N(c2nc(=O)n3c4c(c(-c5ccc(F)cc5F)c(Cl)cc24)OC[C@H]3CCN2CCOCC2)C[C@H]1C [Example 213, (3R)-7-((2S,5R)-4-acryloyl-2,5-dimethylpiperazin-1-yl)-9-chloro-10-(2,4-difluorophenyl)-3-(2-morpholinoethyl)-2H-[1,4]oxazino[2,3,4-ij]quinazolin-5(3H)-one]
48.4% | C=CC(=O)N1C[C@H](C)N(c2nc(=O)n3c4c(c(-c5ccc(F)cc5F)c(Cl)cc24)O[C@H](CCCN2CCN(C)CC2)C3)C[C@H]1C [Example 260, (2R)-7-((2S,5R)-4-acryloyl-2,5-dimethylpiperazin-1-yl)-9-chloro-10-(2,4-difluorophenyl)-2-(3-(4-methylpiperazin-1-yl)propyl)-2,3-dihydro-5H-[1,4]oxazino[2,3,4-ij]quinazolin-5-one]
94.8% | C=CC(=O)N1C[C@H](C)N(c2nc(=O)n3c4c(c(-c5ccc(F)cc5F)c(Cl)cc24)OC[C@@H]3CN2CCN(C)CC2)C[C@H]1C [Example 257, (3S)-7-((2S,5R)-4-acryloyl-2,5-dimethylpiperazin-1-yl)-9-chloro-10-(2,4-difluorophenyl)-3-((4-methylpiperazin-1-yl)methyl)-2H-[1,4]oxazino[2,3,4-ij]quinazolin-5(3H)-one]
80.1% | C=CC(=O)N1C[C@H](C)N(c2nc(=O)n3c4c(c(-c5ccc(F)cc5F)c(Cl)cc24)OC[C@H]3CN2CCN(C)CC2)C[C@H]1C [Example 256, (3R)-7-((2S,5R)-4-acryloyl-2,5-dimethylpiperazin-1-yl)-9-chloro-10-(2,4-difluorophenyl)-3-((4-methylpiperazin-1-yl)methyl)-2H-[1,4]oxazino[2,3,4-ij]quinazolin-5(3H)-one]
